Experiment [1] deals with RKO cells (human colon cancer cell lines). Put plainly: Cell growth inhibition study using RKO cells (CellTiter-Glo). In kind it is cell-based. The conditions noted are these: 72 h, 3 days. On the procedure:
The in vitro cell growth inhibition study using RKO cells (human colon cancer cell lines) was conducted as described below.
RKO cells (ATCC, Cat#: CRL-2577) cultured in a MEM medium (GIBCO, Cat#:10370-088) supplemented with 10% FBS, 1 mM L-glutamine (GIBCO, Cat#:25030), and 1 mM sodium pyruvate (GIBCO, Cat#:11360) were seeded in a 96-well flat bottom microplate (COSTAR, Cat#:3904) at 2×10^3 cells (150 μl) and cultured in an incubator containing 5% CO2 at 37° C. for 1 day. The compound according to the present invention subjected to serial dilution with dimethyl sulfoxide or dimethyl sulfoxide alone was added to a MEM medium containing 10% FBS, 1 mM L-glutamine, and 1 mM sodium pyruvate. The resultant medium containing the compound or dimethyl sulfoxide alone was added to the RKO cells in the culture plate by 50 μl/well at the final concentration of the compound to 10, 3, 1, 0.3, 0.1, 0.03, 0.01, 0.003, and 0 μM, respectively. Another RKO cell culture plate separately prepared was allowed to stand at room temperature for 30 minutes, then 100 μl of the medium was removed, and added 50 μl of CellTiter-Glo® 2.0 Assay (Promega, Cat#:G9242) to each well. After the plates were placed in the dark for 10 minutes, the luminescence level derived from viable cells in each well was measured by the Multimode Plate Reader (PerkinElmer, EnSpire). The cells treated with the compound or dimethyl sulfoxide alone were cultured at 37° C. in an incubator containing 5% CO2 for an additional 3 days. After incubation, the culture plate was placed at room temperature for 30 minutes, and 150 μl of the supernatant was removed from each well to adjust the amount of the remaining cell culture solution to 50 μl each. To 50 μl of the remaining cell culture solution, the equivalent amount of CellTiter-Glo® 2.0 Assay was added. After the cell culture plate was placed in the dark for 10 minutes, the luminescence level derived from viable cells in each well was assayed with the use of the Multimode Plate Reader. The cell growth rate was calculated by the formulae shown below and the concentration at which the cell growth rate became 50%; i.e., the concentration of the compound according to the present invention at which cell growth would be inhibited by 50% was determined (GI50 (nM)). Cell growth rate (%)=(T−C0)/(C−C0)×100, provided that T is equal to or greater than C0(T≥C0) Cell growth rate (%)=(T−C0)/C0×100, provided that T is less than C0(T<C0) C0: Luminescence level in each well when the compound is added (count per second) C: Luminescence level in each well when dimethyl sulfoxide is added alone (count per second) T: Luminescence level in each well when the test compound is added (count per second)
As control compounds, conventional Comparative Example A (WO 2010/056563 (Example 31)) and Comparative Example B having inhibitory activity against Akt were used.
The GI50 levels of representative compounds according to the present invention and reference compounds in RKO cells were evaluated, and the results are shown in Table 5.

A further experiment addresses human Akt1 (Homo sapiens (Human), UniProt P31749). Description: Inhibitory effects on Akt1 kinase activity (TR-FRET, biotinylated Crosstide). The experiment is classed as biochemical. The settings on record: Akt1, ATP 150 μM, pre-incubation 120 minutes at 25° C.; read-out: AKT inhibitory activity IC50. The protocol: Akt1 was prepared and assays of inhibitory activity of the compound according to the present invention against Akt1 kinase activity in vitro were conducted according to the method described in Biochem. J., vol. 385, pp. 399-408, 2005 and Cancer Res., vol. 68, pp. 2366-2374, 2008. In the preparation of Akt1 protein, human Akt1 tagged with the middle T antigen was expressed in an insect cell Sf9, Akt1 was prepared through affinity purification and activation by PDK1, and the resultant was stored at −80° C. until the inhibition assays of the compounds. In the inhibition assay of the compounds, Akt1 and the compound according to the present invention were subjected to pre-incubation at 25° C. for 120 minutes in a reaction buffer (15 mM Tris-HCl, pH 7.5, 0.01% Tween-20, 2 mM DTT). Subsequently, biotinylated Crosstide (biotin-[…], Millipore), MgCl2, and ATP were added as substrates at the final concentration of 500 nM, 10 mM, and 150 μM, respectively, and the reaction was allowed to proceed at 25° C. for 60 minutes. EDTA was added to the final concentration of 40 mM to terminate the reaction, a detection liquid containing the Eu-anti-phospho-Crosstide antibody (PerkinElmer) and SureLight APC-SA (PerkinElmer) at the final concentration of 0.5 nM and 62.5 nM, respectively was added, and the reaction was allowed to proceed at room temperature for 2 hours. In the end, the fluorescence levels irradiated with an excitation light of 337 nm were assayed at two different wavelength levels (i.e., 620 nm and 665 nm) using PI-HERAstar FS (BMG LABTECH) or PHERAstar (BMG LABTECH). The level of the phosphorylation reaction was determined on the basis of the ratio of fluorescence levels at two wavelength levels, and the concentration of the compound at which phosphorylation could be inhibited by 50% was defined as the IC50 level (nM) and shown in Table 2.
As reference compounds, conventional Comparative Example A (WO 2010/056563 (Example 31)) and Comparative Example B having inhibitory activity against Akt were used.

The next experiment addresses S6K1 (Homo sapiens (Human), UniProt P23443). Description: Inhibitory effects on S6K1 kinase activity (QSS Assist FP assay kit). The experiment is classed as biochemical. The conditions noted are these: S6K1, ATP 25 μM; read-out: S6K inhibitory activity IC50. The protocol: Inhibitory activity of the compound according to the present invention on S6K1 kinase activity in vitro was assayed using the QSS Assist™ FP assay kit (Carna Biosciences, Inc.).
In the inhibition assay for inhibitory activity of the compound, the test compound was diluted by serial dilution with dimethyl sulfoxide (DMSO). Subsequently, an S6K protein, a substrate peptide (final concentration: 100 nM), magnesium chloride (final concentration: 5 mM), ATP (final concentration: 25 μM), and the solution of the test compound in DMSO (final DMSO concentration: 5%) were added to the kinase reaction buffer (20 mM HEPES (pH 7.4), 2 mM dithiothreitol, 0.01% Tween-20), and the mixture was incubated at 25° C. for 30 minutes to perform the kinase reaction. The IMAP Progressive Binding Reagent diluted to 400-fold with the IMAP Progressive Binding Buffer A (Molecular Devices, LLC) was added thereto to terminate the kinase reaction. The reaction product was allowed to stand at room temperature in the dark for 120 minutes and assayed with the use of PHERAstar (BMG LABTECH; excitation wavelength: 485 nm; detection wavelength: 520 nm). The level of phosphorylation reaction was determined based on the degree of fluorescence polarization, and the concentration of the compound at which phosphorylation could be inhibited by 50% was defined as the IC50 level (nM) and shown in Table 4.

The next experiment has as its target Rsk1 (Homo sapiens (Human), UniProt Q15418). Description: Inhibitory effects on Rsk1 kinase activity (QSS Assist FP assay kit). In kind it is biochemical. The conditions noted are these: Rsk1, ATP 30 μM; read-out: Rsk inhibitory activity IC50. On the procedure:
Inhibitory activity of the compound according to the present invention on Rsk1 kinase activity in vitro was assayed using the QSS Assist™ FP assay kit (Carna Biosciences, Inc.).
In the inhibition assay of inhibitory activity of the compound, the test compound was diluted by serial dilution with dimethyl sulfoxide (DMSO). Subsequently, an Rsk1 protein, a substrate peptide (final concentration: 100 nM), magnesium chloride (final concentration: 10 mM), ATP (final concentration: 30 μM), and the solution of the test compound in DMSO (DMSO final concentration: 5%) were added to the kinase reaction buffer (20 mM HEPES (pH 7.4), 2 mM dithiothreitol, 0.01% Tween-20), and the mixture was incubated at 25° C. for 40 minutes to perform the kinase reaction. The IMAP Progressive Binding Reagent diluted to 400-fold with the IMAP Progressive Binding Buffer A (Molecular Devices, LLC) was added to terminate the kinase reaction.

human Akt1, sequence (P31749 whole entry): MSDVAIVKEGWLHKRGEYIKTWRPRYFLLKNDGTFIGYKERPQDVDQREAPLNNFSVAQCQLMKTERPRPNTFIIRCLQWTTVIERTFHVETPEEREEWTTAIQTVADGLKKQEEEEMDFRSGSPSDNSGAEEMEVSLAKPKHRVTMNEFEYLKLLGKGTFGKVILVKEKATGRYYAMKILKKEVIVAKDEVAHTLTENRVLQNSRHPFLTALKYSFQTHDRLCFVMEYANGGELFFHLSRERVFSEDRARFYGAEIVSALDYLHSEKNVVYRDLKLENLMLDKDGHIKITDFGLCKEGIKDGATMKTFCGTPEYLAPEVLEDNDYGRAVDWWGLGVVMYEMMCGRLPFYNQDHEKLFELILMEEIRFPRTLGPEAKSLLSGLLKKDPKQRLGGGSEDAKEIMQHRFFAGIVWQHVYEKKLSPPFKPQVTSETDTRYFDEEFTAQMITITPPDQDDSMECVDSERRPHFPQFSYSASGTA
Rsk1, sequence (Q15418 whole entry): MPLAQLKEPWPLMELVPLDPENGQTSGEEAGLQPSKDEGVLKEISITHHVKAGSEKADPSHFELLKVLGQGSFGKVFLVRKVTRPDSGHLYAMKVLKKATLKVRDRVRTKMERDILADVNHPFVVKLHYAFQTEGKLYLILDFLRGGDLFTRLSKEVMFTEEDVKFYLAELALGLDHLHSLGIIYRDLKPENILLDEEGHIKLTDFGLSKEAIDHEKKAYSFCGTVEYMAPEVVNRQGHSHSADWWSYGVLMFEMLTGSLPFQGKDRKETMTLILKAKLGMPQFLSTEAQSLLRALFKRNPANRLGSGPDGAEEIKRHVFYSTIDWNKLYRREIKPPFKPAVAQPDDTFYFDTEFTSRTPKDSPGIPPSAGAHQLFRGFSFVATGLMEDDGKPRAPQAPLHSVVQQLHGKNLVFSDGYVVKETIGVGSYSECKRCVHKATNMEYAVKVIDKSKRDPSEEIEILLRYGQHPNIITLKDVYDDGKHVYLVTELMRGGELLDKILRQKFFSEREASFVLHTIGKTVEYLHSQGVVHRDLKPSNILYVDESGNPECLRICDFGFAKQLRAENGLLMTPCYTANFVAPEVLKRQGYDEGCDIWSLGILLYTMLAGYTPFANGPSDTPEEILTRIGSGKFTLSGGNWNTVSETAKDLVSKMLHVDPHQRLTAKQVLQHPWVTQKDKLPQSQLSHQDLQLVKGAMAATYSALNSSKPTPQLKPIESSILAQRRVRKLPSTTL
S6K1, sequence (P23443 whole entry): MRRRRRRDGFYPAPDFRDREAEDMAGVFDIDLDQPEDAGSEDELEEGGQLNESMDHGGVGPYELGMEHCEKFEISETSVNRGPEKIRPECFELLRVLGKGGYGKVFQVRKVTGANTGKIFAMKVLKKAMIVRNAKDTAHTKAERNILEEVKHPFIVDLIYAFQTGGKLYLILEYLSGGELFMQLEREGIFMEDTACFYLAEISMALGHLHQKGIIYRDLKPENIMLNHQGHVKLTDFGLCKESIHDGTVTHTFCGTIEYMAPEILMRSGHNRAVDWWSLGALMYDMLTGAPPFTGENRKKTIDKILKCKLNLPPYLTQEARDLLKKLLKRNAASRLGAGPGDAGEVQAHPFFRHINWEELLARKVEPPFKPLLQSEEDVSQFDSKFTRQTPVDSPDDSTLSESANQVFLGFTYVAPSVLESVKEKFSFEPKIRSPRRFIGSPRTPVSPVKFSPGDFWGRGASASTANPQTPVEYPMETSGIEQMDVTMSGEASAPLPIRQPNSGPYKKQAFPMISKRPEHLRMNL

In the case of `CC1C(=O)Nc2ncnc(N3CCC(c4nc(-c5nccs5)ccc4NCCN4CCCC4)CC3)c21` (stereo not drawn) [Compound 24, 5-Methyl-4-(4-(3-((2-(pyrrolidin-1-yl)ethyl)amino)-6-(thiazol-2-yl)pyridin-2-yl)piperidin-1-yl)-5H-pyrrolo[2,3-d]pyrimidin-6(7H)-one], the GI50 in experiment [1] amounted to 130 nM. Also, the IC50 on human Akt1 came out at 1.9 nM; at S6K1, 0.6 nM.

In the case of `CC1C(=O)Nc2ncnc(N3CC=C(c4nc(-c5cncc(F)c5)ccc4NCCN4CCCC4)CC3)c21` (stereo not drawn) [Compound 26, 4-(5-Fluoro-5′-((2-(pyrrolidin-1-yl)ethyl)amino)-5″,6″-dihydro-[3,2′:6′,4″-terpyridine-]-1″(2″H)-yl)-5-methyl-5H-pyrrolo[2,3-d]pyrimidin-6(7H)-one], the 50% growth inhibitory concentration (GI50) in experiment [1] came out at 124 nM. Besides, the half-maximal inhibitory concentration (IC50) at S6K1 was 0.6 nM.

Consider `CC(C)(C)NCCNc1ccc(-c2nnc(C(F)F)s2)nc1C1CCN(c2ncnc3c2C(C)(C)C(=O)N3)CC1` [Compound 37, 4-(4-(3-((2-(Tert-butylamino)ethyl)amino)-6-(5-(difluoromethyl)-1,3,4-thiadiazol-2-yl)pyridin-2-yl)piperidin-1-yl)-5,5-dimethyl-5H-pyrrolo[2,3-d]pyrimidin-6(7H)-one], for which the half-maximal inhibitory concentration (IC50) on Rsk1 is 0.5 nM; at human Akt1, 3.3 nM; on S6K1, 0.3 nM.

In turn, `CC(C)(C)NCCNc1ccc(-c2nnc(C(F)(F)F)o2)nc1C1CCN(c2ncnc3c2C(C)(C)C(=O)N3)CC1` [Compound 32, 4-(4-(3-((2-(Tert-butylamino)ethyl)amino)-6-(5-(trifluoromethyl)-1,3,4-oxadiazol-2-yl)pyridin-2-yl)piperidin-1-yl)-5,5-dimethyl-5H-pyrrolo[2,3-d]pyrimidin-6(7H)-one] returned a GI50 in experiment [1] of 89 nM.

On to `CC(C)NCCNc1ccc(-c2nnc(C(F)(F)F)o2)nc1C1CCN(c2ncnc3c2C(C)(C)C(=O)N3)CC1` [Compound 33, 4-(4-(3-((2-(Isopropylamino)ethyl)amino)-6-(5-(trifluoromethyl)-1,3,4-oxadiazol-2-yl)pyridin-2-yl)piperidin-1-yl)-5,5-dimethyl-5H-pyrrolo[2,3-d]pyrimidin-6(7H)-one], for which the 50% inhibitory concentration (IC50) is 1 nM at Rsk1, 2.5 nM at human Akt1 and 0.5 nM at S6K1.

For `CC(C)NCCNc1ccc(-c2cnc(F)c(F)c2)nc1C1CCN(c2ncnc3c2C(C)(C)C(=O)N3)CC1` [Compound 5, 4-(4-(5′,6′-Difluoro-5-((2-(isopropylamino)ethyl)amino)-[2,3′-bipyridin]-6-yl)piperidin-1-yl)-5,5-dimethyl-5H-pyrrolo[2,3-d]pyrimidin-6(7H)-one], the IC50 at Rsk1 was determined as 0.7 nM; on human Akt1 it was 3.5 nM; on S6K1 it was 0.3 nM.

In the case of `CC1C(=O)Nc2ncnc(N3CCC(c4nc(-c5ccsc5)ccc4NCCN4CCCC4)CC3)c21` (stereo not drawn) [Compound 18, 5-Methyl-4-(4-(3-((2-(pyrrolidin-1-yl)ethyl)amino)-6-(thiophen-3-yl)pyridin-2-yl)piperidin-1-yl)-5H-pyrrolo[2,3-d]pyrimidin-6(7H)-one], the figures for the half-maximal inhibitory concentration (IC50) on Rsk1, at human Akt1 and at S6K1 were 1.4 nM, 0.5 nM and 0.8 nM, respectively.

In the case of `CC1C(=O)Nc2ncnc(N3CCC(c4nc(-c5cc(C(F)(F)F)nn5C)ccc4NCCN4CCCC4)CC3)c21` (stereo not drawn) [Compound 20, 5-Methyl-4-(4-(6-(1-methyl-3-(trifluoromethyl)-1H-pyrazol-5-yl)-3-((2-(pyrrolidin-1-yl)ethyl)amino)pyridin-2-yl)piperidin-1-yl)-5H-pyrrolo[2,3-d]pyrimidin-6(7H)-one], the 50% inhibitory concentration (IC50) at Rsk1 worked out at 0.9 nM; at human Akt1, 0.6 nM; on S6K1, 0.6 nM.

Take `CC(C)NCCNc1ccc(-c2cc(Cl)nn2C)nc1C1CCN(c2ncnc3c2C(C)(C)C(=O)N3)CC1` [Compound 11, 4-(4-(6-(3-Chloro-1-methyl-1H-pyrazol-5-yl)-3-((2-(isopropylamino)ethyl)amino)pyridin-2-yl)piperidin-1-yl)-5,5-dimethyl-5H-pyrrolo[2,3-d]pyrimidin-6(7H)-one]: the IC50 at Rsk1 stood at 0.7 nM; on human Akt1, 5.8 nM; on S6K1, 0.3 nM.

Consider `CC1C(=O)Nc2ncnc(N3CCC(c4nc(-c5cccnc5F)ccc4NCCN4CCCC4)CC3)c21` (stereo not drawn) [Compound 17, 4-(4-(2′-Fluoro-5-((2-(pyrrolidin-1-yl)ethyl)amino)-[2,3′-bipyridin]-6-yl)piperidin-1-yl)-5-methyl-5H-pyrrolo[2,3-d]pyrimidin-6(7H)-one], for which the IC50 at Rsk1 is 1.1 nM; on human Akt1, 0.6 nM; on S6K1 it was 0.7 nM.

For `CC1C(=O)Nc2ncnc(N3CCC(c4nc(-c5ccsc5)ccc4NCCN(C)C)CC3)c21` (stereo not drawn) [Compound 23, 4-(4-(3-((2-(Dimethylamino)ethyl)amino)-6-(thiophen-3-yl)pyridin-2-yl)piperidin-1-yl)-5-methyl-5H-pyrrolo[2,3-d]pyrimidin-6(7H)-one], the results for the IC50 on Rsk1, at human Akt1 and at S6K1 were 1.5 nM, 0.7 nM and 0.4 nM, respectively.
